Test results: the NIST ThermoML archive (doi:10.1021/je101191e)

Tests used:
[1] = xn = mol fraction of the nth substance listed; details: 298.15 K, 101.3 kPa, Liquid; for viscosity: Concentric cylinders viscometry; for mass density: Pycnometric method
[2] = 298.15 K; 101.33 kPa; Liquid; Pycnometric method

O [water] + CCCCCCC(=O)[O-].CC[NH+](C(C)C)C(C)C
Details | viscosity [mPa·s]
[1], x2 = 0 | 0.891

CC#N [acetonitrile] + CCCCCCCC(=O)[O-].CC[NH+](C(C)C)C(C)C
[1], x2 = 0
Details | mass density [kg/m3] | viscosity [mPa·s]
– | 768.6 | 0.335

CCCCCCC(=O)[O-].CC[NH+](C(C)C)C(C)C [N-ethyl-N-isopropylpropan-2-aminium heptanoate] + CC#N
[1]
Details | mass density [kg/m3] | viscosity [mPa·s]
x1 = 0.1 | – | 1.09
x1 = 0.1016 | 820.6 | –
x1 = 0.2 | – | 1.826
x1 = 0.2003 | 840.8 | –
x1 = 0.3 | – | 2.51
x1 = 0.3046 | 849.7 | –
x1 = 0.4 | – | 3.875
x1 = 0.402 | 853.8 | –
x1 = 0.5 | – | 5.158
x1 = 0.5021 | 857.1 | –
x1 = 0.6 | – | 7.013
x1 = 0.6083 | 859.8 | –
x1 = 0.7 | – | 9
x1 = 0.705 | 862.3 | –
x1 = 0.8 | – | 11.6
x1 = 0.8013 | 863.9 | –
x1 = 0.9 | – | 13.5
x1 = 0.9013 | 865.4 | –
x1 = 1 | 866.5 | 12.23

CC#N [acetonitrile] + CCCCCCC(=O)[O-].CC[NH+](C(C)C)C(C)C
[1], x2 = 0
Details | mass density [kg/m3] | viscosity [mPa·s]
– | 768.6 | 0.335

CCCCCCCC(=O)[O-].CC[NH+](C(C)C)C(C)C [N-ethyl-N-isopropylpropan-2-aminium octanoate] + CC#N
[1]
Details | mass density [kg/m3] | viscosity [mPa·s]
x1 = 0.0948 | 815.2 | –
x1 = 0.1 | – | 1.291
x1 = 0.193 | 834.3 | –
x1 = 0.2 | – | 1.947
x1 = 0.2908 | 842.2 | –
x1 = 0.3 | – | 2.865
x1 = 0.3981 | 847.3 | –
x1 = 0.4 | – | 4.921
x1 = 0.5 | – | 6.897
x1 = 0.505 | 850 | –
x1 = 0.5846 | 852 | –
x1 = 0.6 | – | 8.725
x1 = 0.6749 | 853.3 | –
x1 = 0.7 | – | 11
x1 = 0.7994 | 855.8 | –
x1 = 0.8 | – | 13.31
x1 = 0.86 | 856.5 | –
x1 = 0.9 | – | 14.82
x1 = 1 | 858.5 | 13.52

CCCCCCC(=O)[O-].CC[NH+](C(C)C)C(C)C [N-ethyl-N-isopropylpropan-2-aminium heptanoate] + O
[1]
Details | mass density [kg/m3] | viscosity [mPa·s]
x1 = 0.0998 | 966.3 | –
x1 = 0.1 | – | 21.99
x1 = 0.198 | 936.2 | –
x1 = 0.2 | – | 43.71
x1 = 0.299 | 913.6 | –
x1 = 0.3 | – | 41.58
x1 = 0.4 | – | 31.51
x1 = 0.4007 | 900.3 | –
x1 = 0.5 | – | 26.92
x1 = 0.5007 | 889.9 | –
x1 = 0.5941 | 884 | –
x1 = 0.6 | – | 23.65
x1 = 0.6913 | 877.2 | –
x1 = 0.7 | – | 22.67
x1 = 0.7896 | 872.6 | –
x1 = 0.8 | – | 18.07
x1 = 0.9 | – | 14.44
x1 = 0.9014 | 869.5 | –
x1 = 1 | 866.5 | 12.23

O [water] + CCCCCCCC(=O)[O-].CC[NH+](C(C)C)C(C)C
Details | viscosity [mPa·s]
[1], x2 = 0 | 0.891

CCCCCCCC(=O)[O-].CC[NH+](C(C)C)C(C)C [N-ethyl-N-isopropylpropan-2-aminium octanoate] + O
[1]
Details | mass density [kg/m3] | viscosity [mPa·s]
x1 = 0.0948 | 955.1 | –
x1 = 0.1 | – | 36.61
x1 = 0.193 | 927.3 | –
x1 = 0.2 | – | 52.36
x1 = 0.2908 | 905.7 | –
x1 = 0.3 | – | 42.39
x1 = 0.3981 | 890.6 | –
x1 = 0.4 | – | 32.19
x1 = 0.5 | – | 27.62
x1 = 0.505 | 877.4 | –
x1 = 0.5846 | 872.2 | –
x1 = 0.6 | – | 26.19
x1 = 0.6749 | 867.2 | –
x1 = 0.7 | – | 21.29
x1 = 0.7994 | 862.9 | –
x1 = 0.8 | – | 18.05
x1 = 0.86 | 861 | –
x1 = 0.9 | – | 16.65
x1 = 1 | 858.5 | 13.52

CCCCCCCC(=O)O [octanoic acid]
Details | mass density [kg/m3]
[2] | 910

CCCCCCC(=O)O [heptanoic acid]
Details | mass density [kg/m3]
[2] | 918

CCN(C(C)C)C(C)C [N-ethyl-N-(1-methylethyl)-1-methylethanamine]
Details | mass density [kg/m3]
[2] | 742
